Values quoted from earlier work as cited in patent US7435725B2, “Oral compositions and methods for prevention, reduction and treatment of radiation injury” (The Quigly Corporation, priority 2001, dated 2008).

Columns and labels:
[1] = test system: Salmonella Typhimurium TA98 and TA 1538; details: Trp-P-2 (3-amino-1-methyl-5H-pyrido(4,3-b)indole)
[2] = test system: E. coli B/r WP2 trp-

SMILES	reduction of mutation rate induced by Trp-P-2 [1]	reduction of mutations due to γ-radiation [2]
[Ge+4].[O-2].[O-2] [Germanium oxide]	40-67 folds	–
O=C(O)C[CH2][Ge](=[O])[O][Ge](=[O])[CH2]CC(=O)O [Ge-132]	–	twenty-fold
